# Test results taken from US8664201B2 (priority 2008, dated 2014).
# Where “and” joins values, the source holds several entries; their conditions need not be identical. Equal values may be shown once. Read-outs that look alike come from different tables or passages of the source. Marks after values point to notes of the source that are not given here.
# Key:
# L1210/0 = assay type: in vivo, mice
# L1210/CPA = assay type: in vivo, mice
# Lewis Lung Carcinoma = test system: Lewis Lung Carcinoma; set-up: species or system mice; conditions: mouse, in vivo
# B16 Melanoma = test system: B16 Melanoma; set-up: species or system mice; conditions: mouse, in vivo
# P388/0 = assay type: in vivo, mice
# P388/CPA = assay type: in vivo, mice
# 16/C Mammary Tumor = assay type: in vivo, mice
# human lox-IMVI melanoma = assay type: in vivo, mice
# [1] = test system: human MX-1 mammary tumors; assay type: in vivo, mice
# M5076 Sarcoma = assay: SC implanted M5076 sarcoma; assay type: in vivo, mice; conditions: days 11-15
# [2] = Acute toxicity, three daily IV bolus injections in mice (IPM lysine salt, IPM parent control); assay type: in vivo; conditions: 150 mg/kg IV daily × 3
# Description: This example describes the evaluation of the acute toxicity of isophosphoramide mustard lysine salt, following three days of daily intravenous (bolus) injection in mice. This study consisted of two phases.
# The second main study phase consisted of eight treatment groups (five mice/sex/group) that received the test article as a single daily dose for three consecutive days at respective dose levels of 50, 75, 100, 200, 300, 400, 500, and 600 mg/kg. An additional group (5 mice/sex) served as a parent compound control and received the isophosphoramide mustard parent compound in the same manner, at a dose level of 150 mg/kg. The vehicle was 0.9% sodium chloride for injection, USP and all doses were at a constant volume of 15 mL/kg.
# Observations for mortality, morbidity, and the availability of food and water were conducted twice daily for all animals. Observations for clinical signs were conducted daily during the study (approximately one and four hours postdose on Days 1, 2, and 3, and once daily on non-dosing days). Body weights for all surviving animals were measured and recorded the second day after receipt, prior to randomization, and on Days-1 and 7. Body weights also were measured on all surviving main study phase animals on Day 14. Macroscopic evaluations were performed on each main study animal at necropsy (Day 15).
# Eight main study treatment groups received the test article as a single daily dose for three consecutive days via intravenous (bolus) injection at respective dose levels of 50, 75, 100, 200, 300, 400, 500, and 600 mg/kg. An additional group (five mice/sex) served as a parent compound control and received the Isophosphoramide Mustard Parent Compound in the same manner at a dose level of 150 mg/kg. All doses were at a volume of 15 mL/kg and based on the most recent body weight.
# [3] = Single dose oral toxicity of IPM in rats; assay type: in vivo; conditions: for oral LD50: single dose
# [4] = Single dose oral toxicity of IPM in mice; assay type: in vivo
# [5] = Single dose intravenous toxicity of IPM in rats; assay type: in vivo
# [6] = Single dose intravenous toxicity of IPM in mice; assay type: in vivo
# [7] = Sub-acute IV (3-day) toxicity of IPM in mice; assay type: in vivo; conditions: for dose with kidney tubular necrosis / dose with severe bone marrow depletion / intravenous LD10 / intravenous LD50: IV daily × 3 days
# Source text: Multiple daily dose Administrations—IV and IP—have been studied in mice and dogs. Sub-acute intravenous (3-day) dosing in the mouse and dog has provided the toxicology/pharmacokinetic information regarding toxicities and drug disturbances that were utilized in designing the administration and dose schedules in humans.
# Lewis lung murine tumor = conditions: mouse, in vivo, ip
# MX-1 Human Breast Tumor = conditions: mouse, in vivo, ip
# [8] = Estimated comparable human intravenous dosages
smiles,measurement,setting,value
"O=P1(N(CCCl)CCCl)NCCCO1 (stereo not shown) [Cyclophosphamide, cyclophosphamide]",% ILS (dying mice only),"L1210/0; 200 mg/kg IP, day 2 only",+107%
same,Day 60 survivors/total,"L1210/0; 200 mg/kg IP, day 2 only",0/10
same,Net log10 reduction in tumor burden after therapy,"L1210/0; 200 mg/kg IP, day 2 only",7
same,% ILS (dying mice only),"L1210/CPA; 200 mg/kg IP, day 2 only",+57%
same,Day 60 survivors/total,"L1210/CPA; 200 mg/kg IP, day 2 only",0/10
same,Net log10 reduction in tumor burden after therapy,"L1210/CPA; 200 mg/kg IP, day 2 only",4
same,% ILS,Lewis Lung Carcinoma,68%
same,Log kill total,Lewis Lung Carcinoma,>6.8
same,T-C (tumor growth delay),Lewis Lung Carcinoma,27 days
same,Tumor-free survivors,Lewis Lung Carcinoma,5/10
same,% ILS,B16 Melanoma,68%
same,T-C,B16 Melanoma,27 days
same,Tumor-free survivors,B16 Melanoma,5/10
same,% ILS (dying mice only),"P388/0; 175 mg/kg IP, day 1 only",+130%
same,Day 60 survivors/total,"P388/0; 175 mg/kg IP, day 1 only",4/10
same,Net log10 reduction in tumor burden after therapy,"P388/0; 175 mg/kg IP, day 1 only",7
same,% ILS (dying mice only),"P388/0; 265 mg/kg IP, day 1 only",+280%
same,Day 60 survivors/total,"P388/0; 265 mg/kg IP, day 1 only",7/10
same,Net log10 reduction in tumor burden after therapy,"P388/0; 265 mg/kg IP, day 1 only",7
same,% ILS (dying mice only),"P388/CPA; 175 mg/kg IP, day 1 only",+35%
same,Day 60 survivors/total,"P388/CPA; 175 mg/kg IP, day 1 only",0/10
same,Net log10 reduction in tumor burden after therapy,"P388/CPA; 175 mg/kg IP, day 1 only",3
same,% ILS (dying mice only),"P388/CPA; 265 mg/kg IP, day 1 only",+35%
same,Day 60 survivors/total,"P388/CPA; 265 mg/kg IP, day 1 only",0/10
same,Net log10 reduction in tumor burden after therapy,"P388/CPA; 265 mg/kg IP, day 1 only",3
same,Days Delay (T-C),"16/C Mammary Tumor; 30 mg/kg IP, Q 1dx 4 day 7",0.4 days
same,Days to 2 Doublings,"16/C Mammary Tumor; 30 mg/kg IP, Q 1dx 4 day 7",3.6 days
same,Days Delay (T-C),"16/C Mammary Tumor; 40 mg/kg IP, Q 1dx 4 day 7",1.2 days
same,Days to 2 Doublings,"16/C Mammary Tumor; 40 mg/kg IP, Q 1dx 4 day 7",4.4 days
same,Days Delay (T-C),"16/C Mammary Tumor; 50 mg/kg IP, Q 1dx 4 day 7",4.0 days
same,Days to 2 Doublings,"16/C Mammary Tumor; 50 mg/kg IP, Q 1dx 4 day 7",7.2 days
same,Days Delay (T-C),"16/C Mammary Tumor; 60 mg/kg IP, Q 1dx 4 day 7",4.5 days
same,Days to 2 Doublings,"16/C Mammary Tumor; 60 mg/kg IP, Q 1dx 4 day 7",7.7 days
same,% ILS,"human lox-IMVI melanoma; 40 mg/kg/dose IV, Q1DX5",+121%
same,Median Day of Death,"human lox-IMVI melanoma; 40 mg/kg/dose IV, Q1DX5",42.0
same,Days Delay (T-C),"[1]; 60 mg/kg IP, Q 1dx 5 day 12",>40.5 days
same,Days to 2 Doublings,"[1]; 60 mg/kg IP, Q 1dx 5 day 12",>48.0 days
"O=P(O)(NCCCl)NCCCl [IPM, isophosphoramide mustard]",% ILS (dying mice only),"L1210/0; mouse, in vivo",+128%
same,Day 60 survivors/total,"L1210/0; mouse, in vivo",0/10
same,Net log10 reduction in tumor burden after therapy,"L1210/0; mouse, in vivo",8
same,% ILS (dying mice only),"L1210/CPA; mouse, in vivo",+114%
same,Day 60 survivors/total,"L1210/CPA; mouse, in vivo",1/10
same,Net log10 reduction in tumor burden after therapy,"L1210/CPA; mouse, in vivo",7
same,% ILS,Lewis Lung Carcinoma,34%
same,Log kill total,Lewis Lung Carcinoma,>2.1
same,T-C (tumor growth delay),Lewis Lung Carcinoma,8.4 days
same,Tumor-free survivors,Lewis Lung Carcinoma,6/10
same,% ILS,B16 Melanoma,34%
same,Inhibition of B16 melanoma growth compared with CPA and Ifos,B16 Melanoma,slightly inferior to CPA but better than Ifos
same,T-C,B16 Melanoma,8.4 days
same,Tumor-free survivors,B16 Melanoma,6/10
same,Day 60 survivors/total,"P388/0; mouse, in vivo",0/9 and 1/10
same,Day 60 survivors/total,"P388/CPA; mouse, in vivo",0/10
same,Net log10 reduction in tumor burden after therapy,"P388/CPA; mouse, in vivo",7
same,Days Delay (T-C),M5076 Sarcoma; 18 mg/kg IP daily,1 days
same,Days To 2 doublings,M5076 Sarcoma; 18 mg/kg IP daily,10.3 days
same,Days Delay (T-C),M5076 Sarcoma; 27 mg/kg IP daily,3.3 days
same,Days To 2 doublings,M5076 Sarcoma; 27 mg/kg IP daily,12.6 days
same,Days Delay (T-C),M5076 Sarcoma; 40 mg/kg IP daily,6.1 days
same,Days To 2 doublings,M5076 Sarcoma; 40 mg/kg IP daily,15.4 days
same,Days Delay (T-C),"16/C Mammary Tumor; mouse, in vivo",6.3 days and 5.2 days and 4.2 days
same,Days to 2 Doublings,"16/C Mammary Tumor; mouse, in vivo",9.5 days and 8.5 days and 7.4 days
same,% ILS,"human lox-IMVI melanoma; mouse, in vivo",+52%
same,Median Day of Death,"human lox-IMVI melanoma; mouse, in vivo",29.0
same,Days to 2 Doublings,"[1]; mouse, in vivo",26.5 days and 14.2 days
same,"Cumulative Mortality, female",[2],4/5
same,"Cumulative Mortality, male",[2],1/5
same,"Cumulative Mortality, total",[2]; listed as IPM parent compound,5 of 10 and 5/10
same,oral LD50,[3]; female rats,2786 mg/kg
same,oral LD50,[3]; male rats,4443 mg/kg
same,oral LD50 range,"[3]; oral, range over mice and rats",1.4 to 3.5 g/kg
same,oral LD50,"[3]; rats, both sexes combined",3560 mg/kg
same,oral LD50,[4]; female mice,1962 mg/kg
same,oral LD50,[4]; male mice,1014 mg/kg
same,oral LD50,"[4]; mice, both sexes combined",1432 mg/kg
same,single dose intravenous LD50,[5]; female rats,400 mg/kg
same,single dose intravenous LD50,[5]; male rats,567 mg/kg
same,single dose intravenous LD50,[6]; female mice,484 mg/kg
same,single dose intravenous LD50,[6]; male mice,929 mg/kg
same,treatment-related microscopic findings,"[7]; 75 mg/kg, either sex",No obvious treatment-related microscopic findings
same,Sub-acute IV LD10,[7]; Mouse,119 mg/kg/day
same,dose with kidney tubular necrosis,[7]; female mice,≥ 133 mg/kg
same,dose with severe bone marrow depletion,[7]; female mice,≥ 133 mg/kg
same,intravenous LD10,[7]; female mice,125 mg/kg
same,intravenous LD50,[7]; female mice,132 mg/kg
same,dose with kidney tubular necrosis,[7]; male mice,≥ 237 mg/kg
same,dose with severe bone marrow depletion,[7]; male mice,≥ 178 mg/kg
same,intravenous LD10,[7]; male mice,168 mg/kg
same,intravenous LD50,[7]; male mice,176 mg/kg
same,intravenous LD10,"[7]; mice, combined sexes",119 mg/kg
same,MTD Dosage,Lewis lung murine tumor,40.0 mg/kg/dose
same,T-C,Lewis lung murine tumor,12.5* days
same,MTD Dosage,MX-1 Human Breast Tumor,40.0 mg/kg/dose
same,T-C,MX-1 Human Breast Tumor,2.1* days
same,Sub-acute IV LD10,Dog,5 mg/kg/day
same,survival,"dog, in vivo",(100% survival)
same,MTD,"dog, in vivo, iv",5 mg/kg/day
same,Comparable Human IV Dosage,[8]; estimated from dog sub-acute IV value,100 mg/m^2/d
same,Comparable Human IV Dosage,[8]; estimated from mouse sub-acute IV LD10,30 mg/m^2/d
same,corresponding safe starting dose in humans,"[8]; for three days, from dog MTD",100 mg/m^2 per day
"O=P1(NCCCl)OCCCN1CCCl (stereo not shown) [Ifosfamide, ifosfamide]",Day 60 survivors/total,"L1210/0; mouse, in vivo",0/10 and 0/9
same,Net log10 reduction in tumor burden after therapy,"L1210/0; mouse, in vivo",8
same,Day 60 survivors/total,"L1210/CPA; mouse, in vivo",0/10
same,% ILS,Lewis Lung Carcinoma,55%
same,Log kill total,Lewis Lung Carcinoma,>4.5
same,T-C (tumor growth delay),Lewis Lung Carcinoma,18 days
same,Tumor-free survivors,Lewis Lung Carcinoma,7/10
same,% ILS,B16 Melanoma,55%
same,T-C,B16 Melanoma,18 days
same,Tumor-free survivors,B16 Melanoma,7/10
same,Day 60 survivors/total,"P388/0; mouse, in vivo",7/10
same,Net log10 reduction in tumor burden after therapy,"P388/0; mouse, in vivo",7
same,Day 60 survivors/total,"P388/CPA; mouse, in vivo",0/10
same,Net log10 reduction in tumor burden after therapy,"P388/CPA; mouse, in vivo",4
same,Days to 2 Doublings,"16/C Mammary Tumor; mouse, in vivo",4.6 days and 4.9 days and 3.8 days and 4.0 days
